Reference: patent publication US9840478B2 (MERCK SHARP & DOHME CORP., priority 2013, dated 2017)

Tested on: HIV-1 (H9IIIB strain)
Assay: Cell-based HIV infection assay using a reporter (Cell-Based), MT4-GFP cells
Conditions: Human immunodeficiency virus 1, MT4-GFP cells infected with HIV-1 H9IIIB; 50% normal human serum; mean of at least two independent experiments; read-out: Cell-based IP
Outline: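 MT4-GFP cells (HIV LTR-driven GFP) infected 24 h with HIV-1 H9IIIB at low MOI, then washed and plated with compounds in RPMI + 50% normal human serum, 0.4% DMSO final. Green cells counted at 24 and 48 h; R0 = 48 h/24 h ratio, inhibition normalized to DMSO and triple-drug control; IC50 from 4-parameter fit.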

Going from COC(=O)N[C@H](C(=O)Nc1cccc(F)c1CC[C@H]1CNCC2(CC2)CN1S(=O)(=O)c1ccccc1)[C@@H](c1ccc(Cl)cc1)c1ccc(OC)nc1 [Example 19, Methyl ((1S,2S)-1-(4-chlorophenyl)-3-((3-fluoro-2-(2-((S)-5-phenylsulfonyl)-5,8-diazaspiro[2.6]nonan-6-yl)ethyl)phenylamino)-1-(6-methoxypyridin-3-yl)-3-oxopropan-2-yl)carbamate 2,2,2-trifluoroacetate] to COC(=O)N[C@H](C(=O)Nc1cccc(F)c1CC[C@H]1CNCCN1S(=O)(=O)c1ccccc1)[C@@H](c1ccc(Cl)cc1)c1cccc(OC(F)(F)F)c1 [Example 58, (βS)-4-chloro-N-(3-fluoro-2-{2-[(2S)-1-(phenylsulfonyl)piperazin-2-yl]ethyl}phenyl)-Nα-(methoxycarbonyl)-β-[3-(trifluoromethoxy)phenyl]-L-phenylalaninamide], the IC50 rises from 0.016 µM to 0.042 µM (2.6-fold).

C[C@@H]1CNC[C@H](CCc2c(F)cncc2NC(=O)[C@@H](N)[C@@H](c2ccc(F)cc2)c2cc(F)cc(F)c2)N1S(=O)(=O)c1ccccc1 [Example 13, (βS)-β-(3,5-difluorophenyl)-4-fluoro-N-(5-fluoro-4-{2-[(2S,6R)-6-methyl-1-(phenylsulfonyl)piperazin-2-yl]ethyl}pyridin-3-yl)-L-phenylalaninamide] and C[C@@H]1CNC[C@H](CCc2c(F)cncc2NC(=O)[C@@H](N)[C@@H](c2ccc(Cl)cc2)c2cccc(F)c2)N1S(=O)(=O)c1ccccc1 [Example 135, (βS)-4-chloro-N-(5-fluoro-4-{2-[(2S,6R)-6-methyl-1-(phenylsulfonyl)piperazin-2-yl]ethyl}pyridin-3-yl)-β-(3-fluorophenyl)-L-phenylalaninamide] are within 1.5-fold of each other in IC50: 0.02 µM for the first, 0.023 µM for the second.

First: COC(=O)N[C@H](C(=O)Nc1cncc(F)c1CC[C@H]1CNC[C@H](C)N1S(=O)(=O)c1ccc(Cl)cc1)[C@@H](c1ccc(Cl)cc1)C1CCOCC1 [Example 282, (βR)-4-chloro-N-[4-(2-{(2S,6S)-1-[(4-chlorophenyl)sulfonyl]-6-methylpiperazin-2-yl}ethyl)-5-fluoropyridin-3-yl]-Nα-(methoxycarbonyl)-β-(tetrahydro-2H-pyran-4-yl)-L-phenylalaninamide]
Second: COC(=O)N[C@H](C(=O)Nc1cccc(F)c1CC[C@H]1CNC[C@@H](C)N1S(C)(=O)=O)[C@@H](c1ccc(F)cc1)C1CCOCC1 [Example 146, (βR)-4-fluoro-N-(3-fluoro-2-{2-[(2S,6R)-6-methyl-1-(methylsulfonyl)piperazin-2-yl]ethyl}phenyl)-Nα-(methoxycarbonyl)-β-(tetrahydro-2H-pyran-4-yl)-L-phenylalaninamide]
The IC50 of the first is 6.5-fold lower: 0.011 µM for the first, 0.072 µM for the second.

Going from COC(=O)N[C@H](C(=O)Nc1cccc(F)c1CC[C@H]1CNC[C@H](C)N1S(C)(=O)=O)[C@H](c1cccc(F)c1)c1cccc(Cl)c1 [Example 174, (βR)-3-chloro-N-(3-fluoro-2-{2-[(2S,6S)-6-methyl-1-(methylsulfonyl)piperazin-2-yl]ethyl}phenyl)-β-(3-fluorophenyl)-Nα-(methoxycarbonyl)-L-phenylalaninamide] to C[C@H]1CNC[C@H](CCc2c(F)cccc2NC(=O)[C@@H](N)[C@H](c2cccc(F)c2)c2cccc(Cl)c2)N1S(C)(=O)=O [Example 172, (βR)-3-chloro-N-(3-fluoro-2-{2-[(2S,6S)-6-methyl-1-(methylsulfonyl)piperazin-2-yl]ethyl}phenyl)-β-(3-fluorophenyl)-L-phenylalaninamide], the IC50 rises from 0.099 µM to 0.18 µM (1.8-fold). The first is the more potent here.

Compared with COC(=O)N[C@H](C(=O)Nc1cccc(F)c1CC[C@H]1CNC[C@H](C)N1S(=O)(=O)c1ccc(OC(F)(F)F)cc1)[C@@H](c1ccc(Cl)cc1)C(C)C [Example 142, (βR)-4-chloro-N-(3-fluoro-2-{2-[(2S,6S)-6-methyl-1-{[4-(trifluoromethoxy)phenyl]sulfonyl}piperazin-2-yl]ethyl}phenyl)-Nα-(methoxycarbonyl)-β-(1-methylethyl)-L-phenylalaninamide], C[C@H]1CNC[C@H](CCc2c(F)cccc2NC(=O)[C@@H](N)[C@@H](Cc2ccc(F)cc2)c2ccc(Cl)cc2)N1S(=O)(=O)c1ccc(OC(F)(F)F)cc1 [Example 220, (βS)-4-chloro-β-(4-fluorobenzyl)-N-(3-fluoro-2-{2-[(2S,6S)-6-methyl-1-{[4-(trifluoromethoxy)phenyl]sulfonyl}piperazin-2-yl]ethyl}phenyl)-L-phenylalaninamide] is 9.3-fold higher in IC50: 0.084 µM for the first, 0.78 µM for the second.

First: COC(=O)N[C@H](C(=O)Nc1cccc(F)c1CC[C@H]1CNC[C@H](C)N1S(=O)(=O)c1ccccc1)C1(c2ccc(Cl)cc2)CCOCC1 [Example 276, methyl {(1S)-1-[4-(4-chlorophenyl)tetrahydro-2H-pyran-4-yl]-2-[(3-fluoro-2-{2-[(2S,6S)-6-methyl-1-(phenylsulfonyl)piperazin-2-yl]ethyl}phenyl)amino]-2-oxoethyl}carbamate]
Second: COC(=O)N[C@H](C(=O)Nc1cccc(F)c1CC[C@H]1CNC[C@@H](C)N1S(=O)(=O)c1ccccc1)C1(c2cc(F)cc(F)c2)CCOCC1 [Example 285, methyl {(1S)-1-[4-{3,5-difluorophenyl)tetrahydro-2H-pyran-4-yl]-2-[(3-fluoro-2-{2-[(2S,6R)-6-methyl-1-(phenylsulfonyl)piperazin-2-yl]ethyl}phenyl)amino]-2-oxoethyl}carbamate]
The IC50 of the first is 3.2-fold lower: 0.0091 µM for the first, 0.029 µM for the second.

First: N[C@H](C(=O)Nc1cccc(F)c1CC[C@H]1CNCCN1S(=O)(=O)c1ccccc1)[C@@H](c1ccc(Cl)cc1)c1cncc(F)c1 [Example 44, (βS)-4-chloro-N-(3-fluoro-2-{2-[(2S)-1-(phenylsulfonyl)piperazin-2-yl]ethyl}phenyl)-β-(5-fluoropyridin-3-yl)-L-phenylalaninamide]
Second: C[C@H]1CNC[C@H](CCc2c(F)cccc2NC(=O)[C@@H](N)[C@@H](c2ccc(Cl)cc2)c2cccc(F)c2)N1S(=O)(=O)c1ccccc1 [Example 101, (βS)-4-chloro-N-(3-fluoro-2-{2-[(2S,6S)-6-methyl-1-(phenylsulfonyl)piperazin-2-yl]ethyl}phenyl)-β-(3-fluorophenyl)-L-phenylalaninamide]
The IC50 of the first is 1.6-fold lower: 0.015 µM for the first, 0.024 µM for the second.

Compared with C[C@H]1CNC[C@H](CCc2c(F)cccc2NC(=O)[C@@H](N)[C@@H](c2ccc(F)cc2)c2cc(F)cc(F)c2)N1S(=O)(=O)C1CC1 [Example 223, (βS)-N-(2-{2-[(2S,6S)-1-(cyclopropylsulfonyl)-6-methylpiperazin-2-yl]ethyl}-3-fluorophenyl)-β-(3,5-difluorophenyl)-4-fluoro-L-phenylalaninamide], COc1ccccc1S(=O)(=O)N1[C@@H](CCc2c(F)cccc2NC(=O)[C@@H](N)[C@@H](c2ccc(F)cc2)c2cc(F)cc(F)c2)CNC[C@H]1C [Example 239, (βS)-β-(3,5-difluorophenyl)-4-fluoro-N-[3-fluoro-2-(2-{(2S,6R)-1-[(2-methoxyphenyl)sulfonyl]-6-methylpiperazin-2-yl}ethyl)phenyl]-L-phenylalaninamide] is 3.6-fold higher in IC50: 0.036 µM for the first, 0.13 µM for the second. The first is the more potent here.

First: C[C@@H]1CNC[C@H](CCc2c(F)cccc2NC(=O)[C@@H](N)C2(c3cc(F)cc(F)c3)CCOCC2)N1S(=O)(=O)c1ccccc1 [Example 287, (2S)-2-amino-2-[4-(3,5-difluorophenyl)tetrahydro-2H-pyran-4-yl]-N-(3-fluoro-2-{2-[(2S,6R)-6-methyl-1-(phenylsulfonyl)piperazin-2-yl]ethyl}phenyl)ethanamide]
Second: C[C@@H]1CNC[C@H](CCc2c(F)cccc2NC(=O)[C@@H](N)[C@@H](c2cc(F)cc(F)c2)C2CCOCC2)N1S(=O)(=O)c1ccccc1 [Example 284, (βR)-3,5-difluoro-N-(3-fluoro-2-{2-[(2S,6R)-6-methyl-1-(phenylsulfonyl)piperazin-2-yl]ethyl}phenyl)-β-(tetrahydro-2H-pyran-4-yl)-L-phenylalaninamide]
The IC50 of the first is 2.3-fold higher: 0.091 µM for the first, 0.04 µM for the second.

Going from CC(=O)Nc1cccc(S(=O)(=O)N2CCNC[C@@H]2CCc2c(F)cncc2NC(=O)C[C@@H](c2ccc(F)cc2)c2cc(F)cc(F)c2)c1 [Example 320, (3S)-N-(4-{2-[(2S)-1-{[3-(acetylamino)phenyl]sul-fonyl}piperazin-2-yl]ethyl}-5-fluoropyridin-3-yl)-3-(3,5-difluorophenyl)-3-(4-fluorophenyl)propanamide] to O=C(C[C@@H](c1ccc(F)cc1)c1cc(F)cc(F)c1)Nc1cncc(F)c1CC[C@H]1CNCCN1S(=O)(=O)N1CCCCC1 [Example 325, (3S)-3-(3,5-difluorophenyl)-3-(4-fluorophenyl)-N-(5-fluoro-4-{2-[(2S)-1-(piperidin-1-ylsulfonyl)piperazin-2-yl]ethyl}pyridin-3-yl)propanamide], the IC50 falls from 0.036 µM to 0.013 µM (2.8-fold).

N[C@H](C(=O)Nc1cccc(F)c1CC[C@H]1CNCCN1S(=O)(=O)c1ccccc1)[C@H](CCC1CCOCC1)c1ccc(Cl)c(F)c1 [Example 72, (βR)-4-chloro-3-fluoro-N-(3-fluoro-2-{2-[(2S)-1-(phenylsulfonyl)piperazin-2-yl]ethyl}phenyl)-β-[2-(tetrahydro-2H-pyran-4-yl)ethyl]-L-phenylalaninamide] and COC(=O)N[C@H](C(=O)Nc1cccc(F)c1CC[C@H]1CNCC2(CC2)CN1S(=O)(=O)c1ccccc1)[C@@H](c1ccc(F)cc1)C1CCOCC1 [Example 20, Methyl ((2S,3R)-1-((3-fluoro-2-(2-((S)-5-(phenylsulfonyl)-5,8-diazaspiro[2.6]nonan-6-yl)ethyl)phenyl)amino)-3-(4-fluorophenyl)-1-oxo-3-(tetrahydro-2H-pyran-4-yl)propan-2-yl)carbamate] are the same in IC50: 0.021 µM for the first, 0.021 µM for the second.

Same assay, conditions: MT4-GFP cells infected with HIV-1 H9IIIB; 50% normal human serum; mean of at least two independent experiments; read-out: Cell-based IP

Work on COC(=O)N[C@H](C(=O)Nc1cccc(F)c1CC[C@H]1CNC[C@H](C)N1S(C)(=O)=O)[C@@H](c1ccc(F)cc1)c1cc(F)cc(F)c1 [Example 259, (βS)-β-(3,5-difluorophenyl)-4-fluoro-N-(3-fluoro-2-{2-[(2S,6S)-6-methyl-1-(methylsulfonyl)piperazin-2-yl]ethyl}phenyl)-Nα-(methoxycarbonyl)-L-phenylalaninamide] yielded an IC50 of 0.018 µM.
